In patent US20180051257A1, “METHODS FOR GENERATING ALVEOLAR TYPE II CELLS” (priority 2016, published 2018):

Legend:
[1] = test system: RB20 mESCs; assay: Induction of mESCs to definitive endoderm (DE)-like cells by IDE2: RT-PCR of DE markers and phase contrast morphology; assay type: cell-based, mouse
Description: (§1) To produce endoderm (DE) like cells, RB20 mESCs (embryonic stem cells) were maintained in adherent culture conditions on gelatin-coated dishes, prior to induction of differentiation. As depicted in FIG. 2, an overview of the mESCs maintenance and differentiation protocol. Differentiation of the cells was initiated via a reduction in concentration of KoSR; after three days, cells were induced by IDE2 for six days. In the next step, DE cells differentiated into alveolar type II-like (AT II-like) cells using seven different combinations of three inductive factors: FGF2 (F), hydrocortisone (H) and A549 conditioned medium (CM) during 9 days. The mESCs were cultured in media with reducing concentration of serum for 3 days, for example, 20%, 10% and 5% fetal bovine serum (FBS) in day one, two and three, respectively. Then, it was induced by 200 nM small inducing molecule IDE2 for 6 days. At the end of this first step, DE like cells were characterized for the expression of two DE markers, Sox17 and Foxa2.
The morphology of the said markers in the DE-like cells was assayed by phase contrast microscopy.

[2] = test system: RB20 mESCs; assay: Foxa2 protein expression in mESC-derived DE cells by flow cytometric analysis; assay type: cell-based, mouse; settings: mESC-derived DE cells vs mESCs
Description: as §1
Lack of expression of Foxa2 could be seen in mESC cells.

[3] = 200 nM IDE2, day 6, compared to mESCs negative control group, P<0.05

## O=C(O)CCCCCC(=O)NN=C1CCCC1 [IDE2]
[1]; [3]
  expression level of Foxa2 (RT-PCR): increased expression levels
  expression level of Sox 17 (RT-PCR): increased expression levels
[1]; day 6 of IDE2 induction
  cell morphology in phase contrast micrograph: epithelial morphology characteristic of DE cells
[2]
  numbers of cells that expressed DE-specific marker Foxa2 at the protein level: increase in numbers of cells
